Experimental data: US20260248771A1, “VALBENAZINE, A VMAT2 INHIBITOR, AS A FREE BASE A TOSYLATE OR DITOSYLATE SALT, FOR USE IN THE TREATMENT OF CHOREA ASSOCIATED WITH HUNTINGTON'S DISEASE” (Neurocrine Biosciences, Inc., priority 2022, published 2026)

Experiments:
Type in all cases: in vivo, human
subjects with HD [1] = test: Phase 3 study: EuroQol 5 Dimensions 5 Levels (EQ-5D-5L)
Excerpt: Exploratory endpoints included: • Wearable movement sensors (in select sites; optional participation) using MC10 Inc., BIOSTAMP® NPOINT® system • Huntington Disease Health Index • Changes from the screening period baseline to each postbaseline study visit (Weeks 2 through 12) in the TMC based on site assessments • Changes from the screening period baseline to maintenance (the average of the Week 10 and Week 12 assessments) in the TMC based on video recording central rater assessments • CGI-C response at Weeks 2 through 10 • PGI-C response at Weeks 2 through 10 • The change from baseline to Weeks 4, 8, and 10 in the Neuro-QoL Upper Extremity Function T-score. • The change from baseline to Weeks 4, 8, and 10 in the Neuro-QoL Lower Extremity Function T-score • CGI-S at Weeks 2 through 12 • PGI-S at Weeks 2 through 12 • SF-36 at Week 12 • HD-HI at Week 10 and Week 12 • EQ-5D-5L at Week 10 and Week 12 • UHDRS scores for motor, behavior, and functional capacity assessment at Weeks 2 through 12 • Other UHDRS scores including functional assessment and independence scale at Week 12 • AS at Week 12 • Change from screening period in physical activity by movement sensors at the Week 10 visit period […]

subjects with HD [2] = test: Phase 3 study: safety and tolerability (adverse events)
Procedure: (§1) A Phase 3, randomized, double-blind, placebo-controlled study to evaluate the efficacy, safety, and tolerability of once-daily valbenazine in subjects with HD was conducted. The study included a 4-week screening period, an 8-week dose-adjustment period, a 4-week maintenance period, and a final study visit 2 weeks following the final dose of study drug.
During the dose-adjustment and maintenance periods, the investigator could assess that a dose level is not tolerated if a subject experienced an adverse event (AE) that is (1) deemed associated with the study drug, and (2) of either moderate or severe intensity, or a serious AE.

subjects with HD [3] = test: Phase 3 study: Clinical Global Impression of Change (CGI-C) response status
Excerpt: As used herein, “Clinical Global Impression of Change” or CGI-C refers to a rating instrument based on a 7-point scale (range: 1=very much improved to 7-very much worse) that can be used to rate the overall global improvement of chorea since the initiation of study drug dosing. This scale is a modification of a scale developed by the Psychopharmacology Research Branch of the National Institute of Mental Health to rate the subject's overall improvement in clinical disorder and provides a global evaluation of improvement over time from the clinician's perspective.
In certain embodiments, the method is effective to result in an improvement in Clinical Global Impression of Change (CGI-C) response status, wherein subjects whose score is either a 1 (“very much improved”) or a 2 (“much improved”) in CGI-C were classified as responders. In certain embodiments, at least about 9% of subjects were classified as responders. In certain embodiments, at least about 10%, such as at least about 15%, at least about 20%, at least about 25%, or at least about 30% of subjects were classified as responders. In certain embodiments, at least about 25%, or at least about 30% of subjects were classified as responders after 12 weeks of treatment.
as §1
Secondary endpoints included: • Clinical Global Impression of Change (CGI-C) response status ([…] of “very much improved” or “much improved”) at Week 12; • Patient Global Impression of Change (PGI-C) response status ([…] of “very much improved” or “much improved”) at Week 12; • Change from baseline to Week 12 in the Quality of Life in Neurological Disorders Upper Extremity Function; and • Change from baseline to Week 12 in the Neuro-QoL Lower Extremity Function.
Exploratory endpoints included: • Wearable movement sensors (in select sites; optional participation) using MC10 Inc., BIOSTAMP® NPOINT® system • Huntington Disease Health Index • Changes from the screening period baseline to each postbaseline study visit (Weeks 2 through 12) in the TMC based on site assessments • Changes from the screening period baseline to maintenance (the average of the Week 10 and Week 12 assessments) in the TMC based on video recording central rater assessments • CGI-C response at Weeks 2 through 10 • PGI-C response at Weeks 2 through 10 • The change from baseline to Weeks 4, 8, and 10 in the Neuro-QoL Upper Extremity Function T-score. • The change from baseline to Weeks 4, 8, and 10 in the Neuro-QoL Lower Extremity Function T-score • CGI-S at Weeks 2 through 12 • PGI-S at Weeks 2 through 12 • SF-36 at Week 12 • HD-HI at Week 10 and Week 12 • EQ-5D-5L at Week 10 and Week 12 • UHDRS scores for motor, behavior, and functional capacity assessment at Weeks 2 through 12 • Other UHDRS scores including functional assessment and independence scale at Week 12 • AS at Week 12 • Change from screening period in physical activity by movement sensors at the Week 10 visit period

For `COc1cc2c(cc1OC)[C@H]1C[C@@H](OC(=O)[C@@H](N)C(C)C)[C@H](CC(C)C)CN1CC2` [Valbenazine, (S)-2-amino-3-methyl-butyric acid (2R,3R,11bR)-3-isobutyl-9,10-dimethoxy-1,3,4,6,7,11b-hexahydro-2H-pyrido[2,1-a]isoquinolin-2-yl ester], the “EQ-5D-5L health index score and distribution of scores for each dimension, differences between treatment groups” value (subjects with HD [1]; baseline to Weeks 10 and 12) was “No notable differences between treatment groups were observed”, the “EQ-5D-5L shift toward worsening in any dimension” value (subjects with HD [1]; valbenazine group) was “index score and distribution of scores for each dimension. No shift” and the “SAE and AE leading to discontinuation of study treatment” value (subjects with HD [2]; both treatment groups) was “comparable rates and low incidence”. The “rates of TEAEs” value (subjects with HD [2]; both treatment groups) was “comparable rates of TEAEs in both treatment groups”, the tolerability (subjects with HD [2]; once-daily administration) was “well tolerated” and the “somnolence (most commonly reported AE), incidence” value (subjects with HD [2]; valbenazine group) was 15.6%. For the same molecule, the “suicidal behavior or worsening of suicidal ideation” value (subjects with HD [2]; valbenazine treated subjects) was “No suicidal behavior or worsening of suicidal ideation was observed”, the “CGI-C response rate difference between treatment groups (valbenazine minus placebo)” value (subjects with HD [3]; Week 2) was “follows: Week 2 (7.71% [95% CI: −0.93, 17.87], nominal p = 0.1157),” and the “CGI-C response rate difference between treatment groups (valbenazine minus placebo)” value (subjects with HD [3]; Week 4) was “Week 4 (20.42% [95% CI: 7.53, 33.00], nominal p = 0.0012), Week 6”. The “CGI-C response rate difference between treatment groups (valbenazine minus placebo)” value (subjects with HD [3]; Week 6) was “(20.14% [95% CI: 4.04, 35.89], nominal p = 0.0151), Week 8”, the “CGI-C response rate difference between treatment groups (valbenazine minus placebo)” value (subjects with HD [3]; Week 8) was “(34.50% [95% CI: 16.46, 49.76], nominal p = 0.0001), and Week 10” and the “CGI-C response rate difference between treatment groups (valbenazine minus placebo)” value (subjects with HD [3]; Week 10) was “(24.80% [95% CI: 6.55, 41.18], nominal p = 0.0065)”. The “CGI-C @ week 12, % responders” value (subjects with HD [3]; Week 12, valbenazine group) was 42.9% and the “CGI-C @ week 12, % responders, Difference” value (subjects with HD [3]; Week 12, valbenazine vs placebo) was 29.7%.
